Data reported in patent US9057055B2, “Method of obtaining circulating cancer cell populations” (THE ROYAL INSTITUTION FOR THE ADVANCEMENT OF …, priority 2012, dated 2015).

System: CCC cells from a breast cancer patient (ER+, PR−, HER2 (2+))
Test: Drug-sensitivity assay of cultured CCCs (Presto Blue cell growth/viability)
Assay type: cell-based, human
Details: cultured CCCs grown in MammoCult media, 10 000 cells per well, 48 hours incubation, Presto Blue fluorescence vs vehicle-treated cells (FIG. 13)
Procedure: One or more frozen aliquot of RoboSep™ CD45-negative cell population (described in Example I and containing about 5×10^6 nucleated cells and about 1 000 to 3 000 CTCs based on Epimet™-positive staining) is cultured in the conditions described in Example II until approximately 600 000 cells are obtained (usually after 6 subculture steps). This amount of cells is sufficient for testing four distinct compounds in triplicate at four different concentrations using a plating density of approximately 5 000 to 10 000 cells/well in 96-well plates. Cells are plated onto ultra-low attachment microtiter plates at 5 000 to 10 000 cells/well in 125 μL of fresh MammoCult™ media in triplicates. Experimental and control samples (no cells added) are incubated for 24 hours at 37° C. and 5% CO2. […] Fluorescence intensity (FI) is determined using a spectrofluorometer (excitation: 530-560 nm; emission: 590 nm). Dose response curves are calculated as a percentage of untreated controls (FI590 of test agent dilution/FI590 of untreated control)×100 and the LD50 are calculated.
Cells were collected by aphaeresis from a breast cancer patient (ER+, PR−, HER2 (2+)) diagnosed with invasive lobular carcinoma and metastatic spread to bone, liver and the mediastinum. […] Cell growth/viability was assessed using Presto Blue®(Invitrogen). […] Fluorescence values use the excitation and emission peaks for resorufin. […]

IC50 (Homo sapiens, low attachment 96-well plate, read-out: IC50 of inhibition of cell growth) [nM]	SMILES	effect on cell growth (increasing concentrations)
~1000	COc1cccc2c1C(=O)c1c(O)c3c(c(O)c1C2=O)C[C@@](O)(C(=O)CO)C[C@@H]3O[C@H]1C[C@H](N)[C@@H](O)[C@H](C)O1 [epirubicin]	–
–	CC(=O)O[C@H]1C(=O)[C@@]2(C)[C@H]([C@H](OC(=O)c3ccccc3)[C@]3(O)C[C@H](OC(=O)[C@H](O)[C@@H](NC(=O)c4ccccc4)c4ccccc4)C(C)=C1C3(C)C)[C@]1(OC(C)=O)CO[C@@H]1C[C@@H]2O [taxol, paclitaxel]	no effect
